Experimental data reported in PubChem BioAssay AID514 (SGCOxCompounds, 2006).

What follows are molecules tested against STE20-like serine/threonine-protein kinase (Homo sapiens) (UniProt Q9H2G2) (assay: ligand-induced SLK melting temperature shift – biophysical, purified human kinase, DSF (AID 514)). Conditions: differential scanning fluorimetry Tm shift, at 10 µM, protein 2 µM, buffer 10 mM HEPES, pH 7.5, NaCl 150 mM, stronger effect = higher value.
STE20-like serine/threonine-protein kinase (Homo sapiens), sequence (Q9H2G2 whole entry, looked up): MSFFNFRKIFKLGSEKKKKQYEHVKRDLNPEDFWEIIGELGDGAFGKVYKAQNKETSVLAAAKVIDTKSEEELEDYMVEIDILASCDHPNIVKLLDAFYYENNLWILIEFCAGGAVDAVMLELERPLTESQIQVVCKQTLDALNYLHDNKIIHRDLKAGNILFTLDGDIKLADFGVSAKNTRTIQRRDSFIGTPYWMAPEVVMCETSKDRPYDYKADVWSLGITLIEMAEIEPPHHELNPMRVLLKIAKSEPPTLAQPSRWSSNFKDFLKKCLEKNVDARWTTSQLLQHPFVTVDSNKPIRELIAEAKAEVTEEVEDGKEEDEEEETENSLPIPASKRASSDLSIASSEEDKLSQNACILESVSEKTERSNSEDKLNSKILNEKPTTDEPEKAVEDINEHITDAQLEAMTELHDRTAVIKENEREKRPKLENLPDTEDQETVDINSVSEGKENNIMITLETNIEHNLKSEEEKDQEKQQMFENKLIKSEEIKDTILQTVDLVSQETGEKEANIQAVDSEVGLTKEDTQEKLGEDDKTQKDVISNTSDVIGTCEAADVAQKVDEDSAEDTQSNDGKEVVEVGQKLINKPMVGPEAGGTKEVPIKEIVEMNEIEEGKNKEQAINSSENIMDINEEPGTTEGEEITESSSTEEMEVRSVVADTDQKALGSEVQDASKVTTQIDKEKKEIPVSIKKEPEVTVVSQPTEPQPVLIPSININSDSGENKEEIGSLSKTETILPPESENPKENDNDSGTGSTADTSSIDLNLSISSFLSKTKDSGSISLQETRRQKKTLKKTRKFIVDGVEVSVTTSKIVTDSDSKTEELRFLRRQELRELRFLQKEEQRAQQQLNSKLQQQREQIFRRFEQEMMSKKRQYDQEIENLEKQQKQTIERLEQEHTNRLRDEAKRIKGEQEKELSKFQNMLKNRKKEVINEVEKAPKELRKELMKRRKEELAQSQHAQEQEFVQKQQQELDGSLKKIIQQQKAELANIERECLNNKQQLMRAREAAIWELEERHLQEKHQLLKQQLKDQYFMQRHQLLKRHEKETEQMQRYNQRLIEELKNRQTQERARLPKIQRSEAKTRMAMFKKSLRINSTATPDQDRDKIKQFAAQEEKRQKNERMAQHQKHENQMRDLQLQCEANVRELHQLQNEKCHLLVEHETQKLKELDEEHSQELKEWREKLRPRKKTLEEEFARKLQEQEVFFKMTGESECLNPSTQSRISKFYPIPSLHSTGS

First: CC(C)[C@@H](CO)Nc1ccc2ncc(-c3cccc(O)c3)n2n1
Second: CC(C)[C@@H](CO)Nc1ccc2ncc(-c3cccc(F)c3)n2n1
The Tm shift of the first is higher: 4.5 C for the first, 4.2 C for the second.

Going from `O=C1Nc2ccccc2/C1=C/c1ccc[nH]1` to `O=C1Nc2ccccc2/C1=C\c1cnc[nH]1`, the Tm shift rises from 3.1 C to 3.3 C.

First: COc1ccc(C(=O)c2sc(Nc3cccc(C(F)(F)F)c3)nc2N)cc1
Second: COc1ccc(Nc2nc(N)c(C(=O)c3ccc(Cl)cc3)s2)cc1
The Tm shift of the first is higher: 4.5 C for the first, 4.4 C for the second.

First: COc1cncc(-c2cnc3ccc(NC4CCOCC4)nn23)c1
Second: Fc1cccc(-c2cnc3ccc(NC4CCOCC4)nn23)c1
The Tm shift of the first is lower: 3.4 C for the first, 4.1 C for the second.

Compared with `FC(F)(F)Oc1cccc(-c2cnc3ccc(NC4CCOCC4)nn23)c1`, `Clc1cccc(-c2cnc3ccc(NC4CCOCC4)nn23)c1` is higher in Tm shift: 3.6 C for the first, 3.9 C for the second.

Compared with `ON(O)c1ccc(-c2nc(-c3ccc(F)cc3)c(-c3ccncc3)[nH]2)cc1`, `Oc1ccc(-c2nc(-c3ccc(F)cc3)c(-c3ccncc3)[nH]2)cc1` is lower in Tm shift: 5.4 C for the first, 4.4 C for the second.

Compared with `c1csc(-c2cnc3ccc(NCC4CC4)nn23)c1`, `Oc1cccc(-c2cnc3ccc(NCC4CC4)nn23)c1` is lower in Tm shift: 3.3 C for the first, 3.2 C for the second.

Compared with `CN(C)CC1CCn2c(c(C3=C(c4cn(C)c5ccccc45)C(=O)NC3=O)c3ccccc32)C1` (configuration not stated), `Cn1cc(C2=C(c3c4n(c5ccccc35)CCC(CN)C4)C(=O)NC2=O)c2ccccc21` (configuration not stated) is higher in Tm shift: 4.2 C for the first, 4.5 C for the second.

First: Nc1nc(Nc2ccc(S(N)(=O)=O)cc2)nn1C(=S)Nc1c(F)cccc1F
Second: Nc1nc(Nc2cccc(Cl)c2)sc1C(=O)c1ccc(F)cc1
The Tm shift of the first is higher: 12.1 C for the first, 3.7 C for the second.

Compared with `Nc1cccc(-c2cc3c(Oc4cccc(O)c4)ncnc3[nH]2)c1`, `Nc1cccc(-c2cnn3ccc(Nc4cccc(Cl)c4)nc23)c1` is lower in Tm shift: 5.7 C for the first, 3.7 C for the second.

Compared with `CNC(=O)c1cc(Oc2ccc(NC(=O)Nc3ccc(C)c(C(F)(F)F)c3)cc2)ccn1`, `O=C(Nc1cccc(Nc2nccc(Nc3cccc(C(F)(F)F)c3)n2)c1)C1CC1` is lower in Tm shift: 8 C for the first, 3.7 C for the second.

Going from `CCN(CC)CCNC(=O)c1c(C)[nH]c(/C=C2\C(=O)Nc3ccc(Cl)cc32)c1C` to `Cc1[nH]c(/C=C2\C(=O)Nc3ccc(S(=O)(=O)N(C)c4cccc(Cl)c4)cc32)c(C)c1C(=O)N1CCN(C)CC1`, the Tm shift rises from 7.5 C to 7.7 C.

Compared with `O=Nc1c(-c2c(O)[nH]c3ccccc23)[nH]c2ccccc12`, `O=Nc1c(-c2c(O)[nH]c3ccc(I)cc23)[nH]c2ccccc12` is lower in Tm shift: 3.9 C for the first, 3.7 C for the second.

First: CCC(CO)Nc1ccc2ncc(-c3cccc(OC(F)(F)F)c3)n2n1 (configuration not stated)
Second: CC(C)[C@@H](CO)Nc1ccc2ncc(-c3cccc(OC(F)(F)F)c3)n2n1
The Tm shift of the first is lower: 3.6 C for the first, 4.3 C for the second.

First: COc1cc2ncnc(Nc3ccc(NC(=O)c4ccccc4)cc3)c2cc1OC
Second: COc1cc2ncnc(Nc3cccc(O)c3)c2cc1OC
The Tm shift of the first is higher: 5.5 C for the first, 3.2 C for the second.

First: Cc1cc(Nc2nc(-c3ccccc3)nc3ccccc23)n[nH]1
Second: c1ccc(-c2cnc3ccc(NCc4ccco4)nn23)cc1
The Tm shift of the first is higher: 6.4 C for the first, 3.1 C for the second.

Going from `Clc1ccc(-c2cnc3ccc(NC4CCOCC4)nn23)cc1` to `Fc1ccc(-c2cnc3ccc(NC4CCOCC4)nn23)cc1`, the Tm shift rises from 3.1 C to 3.6 C.

First: NC(=O)Nc1sc(-c2ccccc2)cc1C(N)=O
Second: NCCNc1ncc(C(N)=O)c(Nc2cccc(C(F)(F)F)c2)n1
The Tm shift of the first is higher: 3.5 C for the first, 3.3 C for the second.

Compared with `O=c1c(O)c(-c2ccc(O)c(O)c2)oc2cc(O)cc(O)c12`, `COc1c(C=O)c(O)cc2c1C(=O)c1ccccc1C2=O` is lower in Tm shift: 5.7 C for the first, 5.4 C for the second.

Going from `CC(=O)c1cccc(-c2cnc3ccc(N[C@H](CO)C(C)C)nn23)c1` to `CC(C)[C@@H](CO)Nc1ccc2ncc(-c3cccc(Cl)c3)n2n1`, the Tm shift rises from 3.7 C to 4.7 C.

First: NCCCn1cc(C2=C(c3c[nH]c4ccccc34)C(=O)NC2=O)c2ccccc21
Second: CN(C)CCCn1cc(C2=C(c3c[nH]c4ccccc34)C(=O)NC2=O)c2ccccc21
The Tm shift of the first is higher: 7.6 C for the first, 6.8 C for the second.

Compared with `COc1cc(/C=C/C(=O)CC(=O)/C=C/c2ccc(O)c(OC)c2)ccc1O`, `CCCNC(=O)Nc1ccc(Oc2ncnc3cc(OC)c(OC)cc23)cc1Cl` is higher in Tm shift: 3.2 C for the first, 5.8 C for the second.

Compared with `Cc1nc(N)sc1-c1ccnc(Nc2cccc(-n3oo3)c2)n1`, `Nc1cc2ncnc(Nc3cccc(Br)c3)c2cc1N` is higher in Tm shift: 3.6 C for the first, 5.7 C for the second.

Going from `Cn1c(O)c(C2=c3ccccc3=NC2=O)[nH]c1=S` to `COc1ccccc1-c1cnc2[nH]c(=O)n(C3CCCC3)c2n1`, the Tm shift falls from 3.4 C to 3.3 C.

Going from `CC(C)[C@@H](CO)Nc1ccc2ncc(-c3cccc(C(F)(F)F)c3)n2n1` to `CC(C)[C@@H](CO)Nc1ccc2ncc(-c3ccc(C#N)cc3)n2n1`, the Tm shift falls from 4.8 C to 3.7 C.

Going from `O=C(c1ccc(Nc2nccc(-c3cc4ccccc4s3)n2)cc1)N1CCC(N2CCCC2)CC1` to `COc1ccc(Nc2nc(N)c(C(=O)c3ccc(OC)cc3)s2)cc1`, the Tm shift falls from 7.3 C to 3.9 C.

Compared with `Cn1cc(/C=C2\C(=O)Nc3ccc(S(N)(=O)=O)cc32)c2ccccc21`, `COc1ccc2c(c1)/C(=C/c1cnc[nH]1)C(=O)N2` is lower in Tm shift: 5 C for the first, 3.3 C for the second.

First: N#Cc1cnc2cnc(NCc3cccnc3)cc2c1Nc1ccc(F)c(Cl)c1
Second: Clc1cccc(-c2cnc3ccc(NCCc4ccccn4)nn23)c1
The Tm shift of the first is higher: 6.1 C for the first, 3.5 C for the second.

First: CCOc1cc2ncnc(Nc3cccc(Br)c3)c2cc1OCC
Second: COc1cc2ncnc(Nc3cccc(Br)c3)c2cc1OC
The Tm shift of the first is higher: 7.9 C for the first, 6.9 C for the second.

Going from `CCC(CO)Nc1ccc2ncc(-c3ccc(O)cc3)n2n1` (configuration not stated) to `CCC(CO)Nc1ccc2ncc(-c3ccc(F)c(Cl)c3)n2n1` (configuration not stated), the Tm shift rises from 3.7 C to 3.8 C.

First: OCC(O)CCO/N=C1/C(c2c(O)[nH]c3ccccc23)=Nc2ccccc21 (configuration not stated)
Second: O=Nc1c(-c2c(O)[nH]c3cc(Br)ccc23)[nH]c2ccccc12
The Tm shift of the first is higher: 4.7 C for the first, 4.6 C for the second.

First: O=C(Nc1cccc(Nc2cc(Nc3cccc(C(F)(F)F)c3)ncn2)c1)C1CC1
Second: COc1cccc(-c2cnn3ccc(Nc4cccc(Cl)c4)nc23)c1
The Tm shift of the first is lower: 3.4 C for the first, 4.7 C for the second.

Going from `Nc1ccc(-c2cnn3ccc(Nc4cccc(Cl)c4)nc23)cc1` to `Clc1cccc(Nc2ccn3ncc(-c4ccc5c(c4)OCO5)c3n2)c1`, the Tm shift falls from 4 C to 3.7 C.

Compared with `COc1cncc(-c2cnc3ccc(N[C@H](CO)C(C)C)nn23)c1`, `Oc1cccc(-c2cnc3ccc(NC4CCOCC4)nn23)c1` is higher in Tm shift: 3.1 C for the first, 4.6 C for the second.

Going from `Nc1ncnc2c1c(I)cn2[C@@H]1O[C@H](CO)C(O)C1O` (some centres not stated) to `CC(C)(C)n1nc(-c2ccc(Cl)cc2)c2c(N)ncnc21`, the Tm shift falls from 4.2 C to 3.6 C.

Going from `COc1ccc(Cl)cc1NC(=O)Nc1cc(C)nc2ccccc12` to `CC(C)(C)n1nc(-c2cccc3ccccc23)c2c(N)ncnc21`, the Tm shift rises from 3.4 C to 6.1 C.

Going from `CCn1cnc2c(Nc3cccc(Cl)c3)nc(N[C@@H]3CCCC[C@@H]3N)nc21` to `CC(C)C(CO)Nc1nc(Nc2cc(N)cc(Cl)c2)c2ncn(C(C)C)c2n1` (configuration not stated), the Tm shift falls from 6.4 C to 6.2 C.

Compared with `O=C1NC(=O)C(c2c[nH]c3ccccc23)=C1c1c[nH]c2ccccc12`, `N=C(N)SCCCn1cc(C2=C(c3c[nH]c4ccccc34)C(=O)NC2=O)c2ccccc21` is higher in Tm shift: 4.6 C for the first, 10.6 C for the second.

Compared with `O=C1NC(=O)C(c2cn(CCCn3ccnc3)c3ccccc23)=C1Nc1ccccc1`, `O=C1NCc2c1c1c3ccccc3[nH]c1c1[nH]c3ccccc3c21` is lower in Tm shift: 6.3 C for the first, 5.1 C for the second.

Going from `Oc1ccc(Nc2nccn3c(-c4cn[nH]c4)cnc23)cc1` to `CC(O)(O)C1(O)C[C@@H]2O[C@@]1(C)n1c3ccccc3c3c4c(c5c6ccccc6n2c5c31)C(=O)NC4` (some centres not stated), the Tm shift rises from 4.7 C to 6.3 C.

First: CN(C)S(O)(O)c1ccc2c(c1)/C(=C/c1cc3c([nH]1)CCCC3)C(=O)N2
Second: O=C1Nc2ccc(Br)cc2/C1=C/c1cc2c([nH]1)CCCC2
The Tm shift of the first is higher: 6.2 C for the first, 3.6 C for the second.
